The test system of one assay is HDAC2. Nature of the assay: Western blot in TRAMP C1 cells. Format: cell-based, mouse. On the procedure: (§1) The DIM used in the study contains approximately 98% of DIM purchased from Sigma-Aldrich t St. Louis, Mo., USA), TRAMP C1 cells (provided by Dr. Barbara Foster, Department of Pharmacology and Therapeutics, Roswell Park Cancer institute, Buffalo. NY), originally derived from TRAMP prostate tumor, were cultured in Dulbecco's Modified Eagle's Medium (Invitrogen Corp., Carlsbad, Calif. U.S.A.) supplemented with 10% (V/V) fetal bovine serum (FBS) (Invitrogen Corp., Grand Island, N.Y., U.S.A.), penicillin 100 U/ml, and streptomycin 100 μg/ml (Invitrogen Corp., Grand Island, N.Y., U.S.A.), Cells were maintained in a humidified incubator with 5% CO2 at 37° C. Cells were seeded in 10 cm plates for 24 h and then treated with 0.1% DMSO (control) or different concentrations of DIM in 1% FBS containing medium for 5 days. The medium was changed every 2 days (20), The TRAMP C1 cells or dorso-lateral prostate tissues collected from treated and control groups were pooled and homogenized with RIPA buffer (Cell Signaling Technology, Danvers, Mass., U.S.A.) and 10 μg/ml protease inhibitor cocktail (EMD Chemicals, Philadelphia, Pa., U.S.A.). Protein (20 μg) was loaded onto 4-15% SDS-PAGE (Bio-Rad Laboratories, Hercules, Calif., U.S.A.). After separation by SDS-PAGE, the protein was transferred onto nitrocellulose membrane (Millipore Corp., Billerica, Mass., U.S.A.), and then was blocked in 5% bovine serum albumin (BSA) (Fisher Scientific, Fair Law, J. U.S.A.) in tris buffer saline tween-20 (TBST) solution for 1 h. Membranes were probed using the different mono- or polyclonal-antibodies (1:1000) overnight at 4″C. Blots were washed with TBST solution for 15 min 4 times and incubated with the respective secondary antibodies for 1 hr. After washing min 4 times with TBST solution, the immunoreactive bands were determined by adding SuperSignal West Femto mix (1:1 mix of stable peroxide buffer and luminol/enhancer solution (Thermo Scientific, Rockford, Ill., U.S.A.) to detect immunoreactive bands. The bands were visualized and quantified by BioRad ChemiDoc XRS system (Hercules, Calif., U.S.A.). The primary antibodies used were β-actin, Nrf2, NQO1 (Santa Cruz Biotechnology, Santa Cruz, Calif., U.S.A.), HDAC1, HDAC2, HDAC3, HDAC4 (Cell Signaling Technology Inc., Danvers Mass., U.S.A.), HDAC8 (Proteintech Group Inc., Chicago, Ill., U.S.A.) and DNMT1, DNMT3a, DNMT3b (Imgenex, San Diego, Calif., U.S.A.). The secondary antibodies used were goat polyclonal IgG for β-actin and NQO1, rabbit polyclonal IgG for Nrf2, HDAC1, HDAC2, HDAC3, HDAC4 and HDAC8, and mouse polyclonal IgG for DNMT1, DNMT3a, DNMT3b (Santa Cruz Biotechnology, Santa Cruz, Calif., U.S.A.),

The next assay relates to NQO1. As to the kind of experiment: Western blot in TRAMP C1 cells. Format: cell-based, mouse. Here is the method:
as §1
(In general: Immunoblotting shows a protein as a band on a membrane.)

A further assay relates to HDAC3. Nature of the assay: Western blot in TRAMP C1 cells. It is filed as cell-based, mouse. On the procedure: as §1
The subject of a further assay is DNMT3b. Nature of the assay: Western blot in TRAMP C1 cells. Format: cell-based, mouse. On the procedure: as §1
Another assay has as its system DNMT1. As to the kind of experiment: Western blot in TRAMP C1 cells. It is filed as cell-based, mouse. On the procedure: as §1
For a further assay, the system named is Nrf2. As to the kind of experiment: Western blot in TRAMP C1 cells. It is filed as cell-based, mouse. Here is the method: as §1
Assay [1] deals with apoptotic cells in the dorso-lateral prostates. Nature of the assay: IHC staining of TRAMP prostate tissue, apoptosis (TUNEL). Format: in vivo, mouse. The note with it: D-G1 and D-G2 vs control, p<0.001. On the procedure:
Sections (4 μm) were cut from the paraffin embedded prostate tissue and mounted on glass slides. The slides Were deparafinized in xylene and antigen unmasking was performed by applying proteinase K digestion directly on the slides for 15 min. Endogenous peroxidase was blocked by incubating in 3% […] for 5 min, and ApopTag Plus Peroxidase In Situ Apoptosis Detection Kit (Millipore, Temecula, Calif., U.S.A.) was used to detect apoptotic cells. For detection of proliferative cells, monoclonal mouse anti-proliferating cell nuclear antigen (PCNA) antibody (Clone PC10, 1:50, Dako North America, Carpinteria, Calif., U.S.A.) was used (12). The staining was performed following as the manufacturer's protocols. Anti-5-methylcytosine (5-MC) mouse monoclone antibody (Clone 162 33 D3, 1:50, EMD Chemicals, Philadelphia, Pa., U.S.A.) was used to detect genome-wide methylated DNA. […] Quantitation of IHC staining was done using the Aperio ScanScope® GL system according to the manufactures protocol (Aperio Technologies Inc., Vista, Calif., U.S.A.). […] The Aperio ImageScopoe software (v 10.1.3.2028) allowed the unbiased quantification and quantitative analysis of the IHC staining of biomarkers of prostate tumor samples obtained from untreated control versus the treated TRAMP mice.

Assay [2] relates to first five CpGs of the Nrf2 gene promoter. As to the kind of experiment: Bisulfite genomic sequencing of TRAMP prostate tissues. It is filed as in vivo, mouse. Conditions: control 98% methylation. On the procedure: Genomic DNA was isolated from the control or DIM treated TRAMP C1 cells and TRAMP dorso-lateral prostate tissues collected from control and DIM treated groups pooled and homogenized using the DNeasy tissue kit (Qiagen, Valencia, Calif., U.S.A.). The genomic DNAs were extracted and subjected to bisulfite conversion carried out using 750 ng of genomic DNA and applying to EZ DNA Methylation Gold Kits (Zymo Research Corp., Orange, Calif., U.S.A.) following the manufacturer's instructions. The converted DNA was amplified by PCR utilizing Platinum PCR SuperMix (Invitrogen, Grand Island, N.Y., U.S.A.) with a set of specific primers, forward: 5′-AGTTATGAAGTAGTAGTAAAAA-3′ (SEQ ID NO: 37) and reverse: 5′-AATATAATCTCATAAAACCCCAC-3 (SEQ ID NO: 38), amplifying the first five CpGs located between −1266 and −1086 of the promoter region of Nrf2 with the translation initiation site defined as +1 (14, 20). Gel extraction using Qiaquick™ gel extraction kit (Qiagen, Valencia, Calif., U.S.A.) were used to purify the PCR products, then cloned into pCR4 TOPO vector using a TOPO™ TA Cloning kit (Invitrogen, Grand Island, N.Y., U.S.A.), Plasmids DNA from at least twenty colonies per for treatment were prepared using QIAprep Spin Miniprep Kit (Qiagen, Valencia Calif., U.S.A.) and sequenced (Genwiz, Piscataway, N.J., U.S.A.).

Structures are written as SMILES.

Consider `c1ccc2c(Cc3c[nH]c4ccccc34)c[nH]c2c1` [DIM, 3,3′-diindolylmethane], for which the HDAC2 protein expression entry with HDAC2 is given as “suppress”. Besides, the NQO1 protein levels entry in the assay with NQO1 is on record as “significantly induced”. For the same compound, in the assay with HDAC3, the HDAC3 protein expression entry is “suppress”. Besides, the DNMT3b protein level entry with DNMT3b was “suppressed”. Moreover, the DNMT1 protein level result in the assay on DNMT1 is listed as “suppressed”. In addition, the Nrf2 protein levels result with Nrf2 was “significantly induced”. Further, in assay [1], the “percent of apoptotic cells” value was “significantly higher”. Further, the figures for the “methylation of the first five CpGs of Nrf2 promoter” value in assay [2] (D-G1) and in assay [2] (D-G2) were 37.6% and 54.4%, respectively.

Values taken from patent US8916604B2, “Compositions and methods for epigenetic modification of nucleic acid sequences” (Rutgers, The State University of New Jersey, priority 2011, dated 2014).
